Assay results published in BindingDB's records for doi:10.1016/j.bmcl.2018.11.048 (Advinus Therapeutics, 2019).

Each compound was assayed against T1, Fatty-acid amide hydrolase 1 (Homo sapiens, UniProt O00519) (assay: Inhibition of human transmembrane domain deficient FFAH expressed in Escherichia coli using AAMCA as substrate incubated for 1 min measured for 50 mins by fluorescence assay).
T1 sequence (O00519 whole entry): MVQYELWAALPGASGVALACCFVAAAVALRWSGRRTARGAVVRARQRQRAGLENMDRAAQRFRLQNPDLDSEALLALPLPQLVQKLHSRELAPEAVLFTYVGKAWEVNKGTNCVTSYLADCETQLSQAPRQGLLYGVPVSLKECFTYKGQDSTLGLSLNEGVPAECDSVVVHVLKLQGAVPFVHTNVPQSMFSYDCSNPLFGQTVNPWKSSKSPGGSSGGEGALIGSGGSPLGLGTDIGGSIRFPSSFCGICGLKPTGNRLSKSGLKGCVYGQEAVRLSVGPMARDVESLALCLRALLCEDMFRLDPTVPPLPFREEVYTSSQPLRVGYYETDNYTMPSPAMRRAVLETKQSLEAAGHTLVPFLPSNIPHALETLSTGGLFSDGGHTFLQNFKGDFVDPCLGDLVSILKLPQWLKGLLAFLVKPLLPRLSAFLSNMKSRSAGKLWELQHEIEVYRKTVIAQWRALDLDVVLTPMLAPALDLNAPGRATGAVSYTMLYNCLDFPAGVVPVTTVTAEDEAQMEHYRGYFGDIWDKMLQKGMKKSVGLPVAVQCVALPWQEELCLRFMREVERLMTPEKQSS

| SMILES | IC50 [nM] |
| --- | --- |
| O=C(NC1CCC(=Cc2cccc(Oc3ccc(C(F)(F)F)cn3)c2)CC1)c1cn[nH]c1 (stereo unspecified) [US9682953, 20.A-12] | 2.6 |
| O=C(NC1CCC(=Cc2cccc(Oc3ccc(C(F)(F)F)cn3)c2)CC1)c1cncnc1 (stereo unspecified) [US9682953, 20.A-20] | 2.6 |
| Cc1cc(C(=O)NC2CCC(=Cc3cccc(Oc4ccc(C(F)(F)F)cn4)c3)CC2)cnc1N (stereo unspecified) [US9682953, 20.A-5] | 3 |
| CCOC(=O)Cn1nc2c(c1C(C)C)C(c1ccc(Cl)cc1C)N(c1cc(Cl)ccc1C)C2=O (stereo unspecified) [US9682953, 20.A-1] | 2.2 |
| O=C(NC1CCC(=Cc2cccc(Oc3ccc(C(F)(F)F)cn3)c2)CC1)c1cnc2[nH]ccc2c1 (stereo unspecified) [US9682953, 20.A-13] | 2.2 |

These compounds were tested against T2, Fatty-acid amide hydrolase 1 [30-579] (Rattus norvegicus, UniProt P97612) (assay: Inhibition of rat FFAH expressed in Escherichia coli using AAMCA as substrate incubated for 1 min measured for 50 mins by fluorescence assay).
T2 construct: 30-579
T2 sequence (P97612 whole entry): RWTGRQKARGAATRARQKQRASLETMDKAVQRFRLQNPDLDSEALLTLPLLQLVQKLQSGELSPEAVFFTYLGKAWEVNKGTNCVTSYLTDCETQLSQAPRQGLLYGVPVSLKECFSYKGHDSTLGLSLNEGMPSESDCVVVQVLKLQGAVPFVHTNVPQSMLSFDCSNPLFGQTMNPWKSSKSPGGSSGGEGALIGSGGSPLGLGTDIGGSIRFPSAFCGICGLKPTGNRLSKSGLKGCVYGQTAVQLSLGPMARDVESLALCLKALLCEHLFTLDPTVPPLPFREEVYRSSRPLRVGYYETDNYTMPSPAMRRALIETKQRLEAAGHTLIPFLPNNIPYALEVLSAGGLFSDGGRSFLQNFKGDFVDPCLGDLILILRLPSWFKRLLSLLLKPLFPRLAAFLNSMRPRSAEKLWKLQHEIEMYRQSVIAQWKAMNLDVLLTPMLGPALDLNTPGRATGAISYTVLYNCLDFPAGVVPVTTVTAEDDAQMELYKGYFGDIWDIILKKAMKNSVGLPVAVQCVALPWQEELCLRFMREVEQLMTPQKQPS

| SMILES | IC50 [nM] |
| --- | --- |
| Cc1cc(C(=O)NC2CCC(=Cc3cccc(Oc4ccc(C(F)(F)F)cn4)c3)CC2)cnc1N (stereo unspecified) [US9682953, 20.A-5] | 29 |
